According to article PMC11267572, “A Repurposed Drug Interferes with Nucleic Acid to Inhibit the Dual Activities of Coronavirus Nsp13” (ACS Chemical Biology, 2024):
Entries after “also recorded” stand apart in the source; their conditions may differ. Like-named read-outs stand apart in the source and are kept apart here.

Columns and labels:
[1] = molecular target: Nsp13; conditions: cited from earlier work
[2] = molecular target: T1, SARS-CoV-2 Nsp13 (Severe acute respiratory syndrome coronavirus 2, UniProt P0DTD1); assay: biochemical; conditions: for inhibition at 50 µM: read-out: inhibition of helicase activity
T1 construct: its nonstructural protein 13 (Nsp13) remains a clinically untapped target; His6-Zb-TEV (N, cleaved yes); host or cells: E. coli BL21 (DE3)

[3] = molecular target: T1, SARS-CoV-2 Nsp13; assay type: biochemical
[4] = molecular target: T1, SARS-CoV-2 Nsp13; assay type: biochemical; remark: listed apart in the source
[5] = molecular target: T2, Hepatitis C Virus (HCV) RNA helicase NS3 (Hepatitis C virus genotype 1b, UniProt Q9WMX2); assay type: biochemical
T2 construct: A truncated form of the Hepatitis C NS3 helicase protein; His-SUMO (N, cleaved yes); made in house; host or cells: E. coli BL21 (DE3) per the methods text
T2 sequence (Q9WMX2 1193-1657): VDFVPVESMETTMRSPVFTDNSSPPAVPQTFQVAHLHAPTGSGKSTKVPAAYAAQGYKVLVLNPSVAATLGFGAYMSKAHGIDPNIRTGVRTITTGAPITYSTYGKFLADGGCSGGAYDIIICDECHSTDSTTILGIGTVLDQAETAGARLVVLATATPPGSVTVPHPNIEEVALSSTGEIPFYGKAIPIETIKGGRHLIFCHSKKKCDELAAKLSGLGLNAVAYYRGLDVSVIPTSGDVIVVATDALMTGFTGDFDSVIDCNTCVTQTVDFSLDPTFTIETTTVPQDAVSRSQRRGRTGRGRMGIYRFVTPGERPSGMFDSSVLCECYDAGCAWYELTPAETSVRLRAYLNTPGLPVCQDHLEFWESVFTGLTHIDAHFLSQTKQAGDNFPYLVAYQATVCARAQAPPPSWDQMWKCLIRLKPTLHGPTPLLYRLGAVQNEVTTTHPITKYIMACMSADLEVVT

[6] = test system: Tte UvrD helicase; assay type: biochemical; conditions: 3.02 nM UvrD, 1 mM ATP, 65 °C, increasing concentrations
[7] = test system: duplex-FL (labeled duplex DNA); assay type: binding; conditions: duplex-FL 100 nM, 10% DMSO, no protein
[8] = test system: Vero E6, Vero ACE2-TMPRSS2 and A549 ACE2 cells; conditions: t = 22 hr
[9] = test system: SARS-CoV-2; design: method as in PMID 35456026; conditions: micromolar concentrations, CFTR-expressing cells; cited from earlier work
[10] = test system: Chinese hamster ovary (CHO) cells expressing CFTR or colon carcinoma cells; conditions: cited from earlier work
[11] = molecular target: T1, SARS-CoV-2 Nsp13; assay: biochemical; conditions: for first-round screen, inhibition of Nsp13 ATPase activity (considered active): no detergent, t = 5 min, compound equimolar to ATP
[12] = molecular target: T1, SARS-CoV-2 Nsp13; assay type: binding; conditions: duplex-FL 100 nM, Nsp13 1 μM

O=C1O[C@H]2[C@@H]3OC(=O)c4cc(O)c(O)c(O)c4-c4c(O)c(O)c5oc(=O)c6c(c(O)c(O)c7oc(=O)c4c5c76)-c4c(cc(O)c(O)c4O)C(=O)OC[C@H]3OC(O)[C@@H]2OC(=O)c2cc(O)c(O)c(O)c2-c2c1cc(O)c(O)c2O (mixture of isomers) [punicalagin]
Kd [1]: ~20 nM

O=C(NCc1ccc(Cn2cc(Cl)cn2)cc1)c1nc(-c2ccc(C(F)(F)F)cc2)no1 [Analog 1]
IC50 [2]: 131 ± 53 µM
fold higher helicase IC50 than IOWH-032 ([2]; 3.12 nM Nsp13, 0.01% Tween-20): > 10 fold
inhibition at 50 µM [2]: > 25%

O=C(NCc1ccc(Oc2ccccc2)cc1)c1nc(-c2cc(Br)c(O)c(Br)c2)no1 [IOWH-032]
mode of ATPase inhibition with respect to ATP [3]: uncompetitive
mode of helicase inhibition with respect to nucleic acid substrate [4]: mixed inhibition
concentration above which NS3 ATPase activity decreases ([5]; 250 nM NS3, 250 μM ATP): exceed 100 µM
sensitivity of NS3 ATPase activity ([5]; mid-micromolar concentrations of compound): nearly insensitive
effect on UvrD ATPase activity (ATP consumption) [6]: is not affected; also recorded: still demonstrated ATPase activity
interaction with duplex-FL probe alone [7]: does not interact with probe alone; also recorded: no direct interaction
reduction in cell viability ([8]; 4 μM, across all mammalian cell lines tested): ~50%
reduction of SARS-CoV-2 viral loads compared to untreated cells [9]: > 2 log10
toxicity [10]: not toxic

O=C(Cn1cccc1-c1nc(-c2ccc(F)c(Br)c2)no1)NCc1ccc(F)cc1 [Analog 6]
inhibition at 50 µM [2]: < 25%

Cc1ccc(COc2c(Br)cc(CNc3ccc(Oc4ccccc4)cc3)cc2Br)cc1 [Analog 5]
inhibition at 50 µM [2]: < 25%

C=CCn1c(CSc2ccccc2[N+](=O)[O-])n[nH]c1=S [SSYA10-001]
inhibition of helicase activity [2]: inhibited

CNC(=O)c1cc(COc2nnc(Nc3ccc(Cl)cc3)c3ccoc23)ccn1 [telatinib]
IC50 ([11]; 25 nM Nsp13, 0.01% Tween-20, read-out: ATPase inhibition IC50): ~114 µM
first-round screen, inhibition of Nsp13 ATPase activity (considered active) [11]: active
IC50 [2]: 20.4 ± 1.5 µM

C[C@H](NC(=O)Cc1cc(F)cc(F)c1)C(=O)N[C@@H]1C(=O)N(C)c2ccccc2-c2ccccc21 [dibenzazepine]
ATPase inhibition on titration in the presence of detergent ([11]; Tween-20, up to high micromolar concentrations): no inhibition
first-round screen, inhibition of Nsp13 ATPase activity (considered active) [11]: active

Cc1ccc(-c2cc(C(=O)NCc3ccc(Oc4ccccc4)cc3)no2)cc1C [Analog 2]
inhibition of helicase activity ([2]; 50 μM analog, 3.12 nM Nsp13, 0.01% Tween-20): no inhibition
displacement of duplex-FL probe [12]: no displacement of probe
toxicity against infection cell lines ([8]; up to 20 µM): did not show toxicity
